Holding throughout (experiment): DTP human tumour cell line panel, 48 h
In experiment [1] the test system is SN12C renal.
The subject of experiment [2] is SF-539 CNS.
Experiment [3] relates to DLD-1 colon.
For experiment [4], the system named is DMS 114 small cell lung.
The test system of experiment [5] is UACC-257 melanoma.
Experiment [6] has as its system NCI-H23 lung.
The subject of experiment [7] is HOP-18 NSCLC.
In experiment [8] the test system is CAKI-1 renal.
Experiment [9] concerns LXFL 529 NSCLC.
The subject of experiment [10] is SK-OV-3 ovarian.
Experiment [11] concerns DU-145 prostate.
Experiment [12] concerns SR leukemia.

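Grown in 96-well plates, cells were treated for 48 hours with each compound at five concentrations. Insufficient inhibition: endpoint recorded as highest concentration tested. TGI: concentration producing complete growth inhibition.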 Some results are limits rather than exact numbers.

Usually TGI stands for the concentration at which net growth stops. A high value points to less potent growth arrest.

Take `O=C(O)/C(Cl)=C(/Cl)C(=O)Nc1cccc(Cl)c1`: the TGI was 36.9 µM in experiment [1]; more than 70.3 µM in [2]; 34 µM in experiment [3]; 32.2 µM in [4]; 47 µM in [5]; 36.4 µM in [6]. The TGI in [7] is 43.3 µM; in experiment [8] it was 16.3 µM; in experiment [9], 30.3 µM; in experiment [10], 25.4 µM; in [11], more than 100 µM; in experiment [12] it was 26.4 µM.

Regarding `C/C=C/C1(NS(=O)(=O)c2ccc(C)cc2)CCC(C(C)(C)C)CC1` (centres undefined), the TGI was 34.7 µM in experiment [1]; 44.1 µM in experiment [2]; more than 100 µM in experiment [3]; 62.3 µM in experiment [4]; 56 µM in experiment [5]; 51.7 µM in experiment [6]. Besides, the TGI in [7] is more than 100 µM; in [8], 98.1 µM; in [9], more than 100 µM; in [10], 81.5 µM; in experiment [12] it was 32.9 µM.

`COc1nc2c(nc(N)n2C2OC(CO)C(O)C(O)C2O)c(=O)n1C` (centres undefined): the TGI in experiment [1], in [2], in experiment [3], in experiment [4], in experiment [5] and in [6] was more than 100 µM throughout. Besides, the TGI in experiment [7], in [8], in experiment [9], in experiment [10] and in [12] was more than 100 µM throughout.

For `Cc1cc(Cl)ccc1N1C(=O)C(=O)C(c2nc3ccccc3s2)C(=O)C1=O`, the TGI in experiment [1], in experiment [2], in [3], in experiment [4], in [5] and in [6] was more than 100 µM in each case. Besides, the TGI in experiment [7], in experiment [8], in experiment [9], in experiment [10] and in [12] was more than 100 µM in each case.

On to `CCCCOC(=O)N[C@H]1CCc2cc(OC)c(OC)c(OC)c2-c2ccc(SC)c(=O)cc21`, for which the TGI in [1] is 34.2 µM; in [2] it was less than 0.01 µM; in experiment [3], more than 100 µM; in experiment [4] it was less than 0.01 µM; in experiment [5], 31.4 µM; in experiment [6], 8.09 µM. Also, the TGI in [7] is more than 100 µM; in [8], 25.6 µM; in experiment [9], 29.5 µM; in experiment [10], 7.24 µM; in experiment [11], less than 0.01 µM; in experiment [12], more than 43 µM.

Turning to `Cc1ccc(S(=O)(=O)N2CCCCC2CCO)cc1` (centres undefined), the TGI in experiment [1], in experiment [2], in [3], in [4], in experiment [5] and in experiment [6] was more than 100 µM each time. In addition, the TGI in [7], in [8], in [9], in experiment [10] and in [12] was more than 100 µM in each case.

With `O=C1C(c2ccccc2)=C(c2ccccc2)C(c2ccccc2)/C1=C1\C(=O)C(c2ccccc2)=C(c2ccccc2)C1c1ccccc1` (centres undefined), the TGI in experiment [1], in experiment [2], in experiment [3], in [4], in experiment [5] and in experiment [6] was more than 100 µM throughout. The TGI in [7], in experiment [8], in experiment [9], in [10] and in experiment [12] was more than 100 µM throughout.

`O=C1/C(=C/c2ccc(O)cc2)CCC1CNc1ccc(Cl)cc1` (centres undefined): the TGI in experiment [1] was found to be 9.25 µM; in experiment [2], 15.5 µM; in [3], 2.97 µM; in experiment [4], 9.02 µM; in experiment [5] it was 11.7 µM; in experiment [6] it was 24.3 µM. Also, the TGI in [7] is 13.5 µM; in experiment [8] it was 8.84 µM; in [9] it was 2.39 µM; in experiment [10], 20.9 µM; in [11], 26.2 µM; in experiment [12] it was 5.51 µM.

In the case of `Cc1cccc(C)c1NC(=O)C(=O)C1C(=O)N(c2ccccc2)N=C1N` (centres undefined), the TGI in experiment [1], in experiment [2], in [3], in [4], in experiment [5] and in [6] was more than 100 µM in each case. Besides, the TGI in [7], in experiment [8], in experiment [9], in experiment [10] and in [12] was more than 100 µM each time.

With `O=C(CC1C(=O)Nc2ccccc2S1=O)Nc1cccc(Cl)c1` (centres undefined), the TGI in [1] was more than 100 µM; in experiment [2], 43.7 µM; in experiment [3], more than 100 µM; in experiment [4], more than 100 µM; in [5], more than 100 µM; in experiment [6], more than 100 µM. Moreover, the TGI in [7] was more than 100 µM; in experiment [8], 55.3 µM; in [9], more than 100 µM; in experiment [10] it was more than 100 µM; in experiment [11], more than 100 µM; in experiment [12] it was 22.1 µM.

These data come from PubChem BioAssay (NCI).
